From patent publication US20230042176A1, “METHOD FOR TREATING ANGELMAN SYNDROME AND RELATED DISORDERS” (priority 2019, published 2023)
“Also recorded” adds a separate entry of the source. Where two headings read alike, the source gives them in different places. Peptide text beside a SMILES is read from it. * marks the point of attachment. Cbz = O=C(OCc1ccccc1)*

Assays:
healthy human volunteers = details: i.v. infused for 1 hour; cited from earlier work
[1] = system: neurons of WT and UBE3A KO cortical organoids; test: Whole cell and perforated patch clamp recordings of neurons in human cortical organoids; assay type: cell-based; details: for changes in neuronal excitability, fAHP, and network hyperactivity and synchronization in human cortical organoids from UBE3A knockout stem cells: summary statement
Method: Cortical organoids were generated based on a published protocol (Pasca et al., Nat Methods 12, 671-678 (2015)) with minor modifications. hPSCs were dissociated to single cells by TrypLE Express (Thermofisher) and seeded into U-shaped ultra-low attachment 96-well plate (Corning) at a density of 6K cells/well in the presence of thiazovivin (5 μM, Tocris). After spheroid formation, media were completely changed to Neural Induction Media (NIM: DMEM/F12 (Nacalai Tesque), 20% KnockOut Serum Replacement (Thermofisher), 1% minimum essential media-nonessential amino acid (Thermofisher), 1% GlutaMax (Thermofisher), 1% Antibiotic-Antimycotic (Thermofisher), 0.1% β-mercaptoethanol (Thermofisher), 5 μM Dorsomorphin (Tocris), 10 μM SB431542 (Stemgent)) for the next 6 days, with media change every other day. Starting day 7, media were changed to Neural Growth Media (NGM: Neurobasal (Thermofisher), 1:50 B27 without vitamin A (Thermofisher), 1% GlutaMAX (Thermofisher), 1% Antibiotic-Antimycotic (Thermofisher), 20 ng/ml EGF (PeproTech), 20 ng/ml FGF-basic (PeproTech)) for the next 18 days, with media change every other day. Starting day 25, organoids were transferred out of 96-well plates to 6-well plates (6-8 organoids per well), cultured in Organoid Media I (OMI: Neurobasal (Thermofisher), 1:50 B27 without vitamin A (Thermofisher), 1% GlutaMax (Thermofisher), 1% Antibiotic-Antimycotic (Thermofisher), 10 mM HEPES (Thermofisher), 10 ng/ml BDNF (PeproTech), 10 ng/ml NT3 (PeproTech)) until day 100 on an orbital shaker (75 rev/min). After day 100, media were changed to Organoid Media II (OMII: BrainPhys (Stemcell Technologies), 1:50 SM1 (Stemcell Technologies), 1% GlutaMax (Thermofisher), 1% Antibiotic-Antimycotic (Thermofisher), 10 mM HEPES (Thermofisher), 10 ng/ml BDNF (PeproTech), 10 ng/ml GDNF (PeproTech), 10 ng/ml NT3 (PeproTech), 100 μM db-cAMP (Sigma)).
(§1) Whole cell patch clamp recordings of neurons in the organoid (wholemount) and acute mouse hippocampal slices were performed in a recording chamber (RC-26GLP, Warner Instruments) and submerged under continuously perfused artificial CSF (aCSF) containing (in mM): 119 NaCl, 2.5 KCl, 11 glucose, 26 NaHCO3, 1.25 NaH2PO4, 2.5 CaCl2 and 2 MgCl2 saturated with 95% O2 and 5% CO2 at 30-32° C. Neuronal intrinsic excitability was measured in the presence of CNQX (20 μM, Tocris) and APV (50 μM, Tocris) to block all excitatory synaptic responses. We targeted neurons near the surface of organoids with reasonably pyramidal-shaped cell bodies under our DIC/IR camera. […] Signals were recorded using a MultiClamp 700B amplifier, filtered at 2 kHz using a Bessel filter, and digitized at 40 kHz with a Digidata 1550B analog-to-digital (A/D) board (Molecular Devices, Sunnyvale, Calif.). […]

[2] = system: WT and UBE3A KO human induced neurons; test: Whole cell patch clamp recordings of human induced neurons (fAHP amplitude, AP firing frequency); assay type: cell-based
[3] = system: BK protein level in HEK293 cells; test: BK protein level in HEK293 cells overexpressing UBE3A (immunoblotting); assay type: cell-based, human; details: proteasome inhibitor 1 μM
Method: Induced neurons or cortical organoids were lysed in RIPA buffer supplemented with protease and phosphatase inhibitor cocktails. Protein samples were loaded onto 8-12% Bis-TRIS (NP0322BOX Invitrogen) and were transferred onto a PVDF membrane. After blocking with 5% milk in TBS-T buffer for 1 hour, PVDF membranes were incubated with primary antibodies overnight at 4° C., followed by 1-hour incubation with mouse or rabbit HRP antibody (1:2000, Invitrogen) at RT. Images were visualized by either chemiluminescence or NIR fluorescent detection using c600 Imaging System (Azure Biosystems Inc). HEK293 cells were grown in DMEM (Sigma) containing 10% FBS (Gibco) and 100 U/mL penicillin-streptomycin (Gibco) in a 5% CO2 incubator. Cells were transfected with a Lipofectamine PLUS (Invitrogen), subsequently were treated with 1 μM of MG132 (A.G Scientific) for another 24 h. Next, cells were lysed in PBS containing 1% SDS (Invitrogen), 1 mM PMSF (USB), 10 μg/ml aprotinin (Roche), and 1% (v/v) phosphatase inhibitor cocktail 2 and 3 (Sigma).

[4] = system: WT and UBE3A KO cortical organoids; test: Two-photon calcium imaging of cortical organoids; assay type: cell-based, human; details: paxilline 10 μM
WT and Ube3a m-/p+ mice [5] = assay type: in vivo, mouse; details: for seizure grade based on Racine's scale: no paxilline
Method: […]. Seizure severity of mice was dependent on multiple variables such as picrotoxin dose, mice age, and their body weights. […] Videos were recorded for all the behavioural experiments. Behavioral analysis was performed in a double-blind manner with littermates (siblings of wild-type (Ube3a^m+/p+) and maternal knockout (Ube3a^m−/p+) mice that produced from same pairs of Ube3a^m+/p− females and Ube3a^m+/p+ males).

WT and Ube3a m-/p+ mice [6] = test: Flurothyl-induced seizures; assay type: in vivo, mouse; details: paxilline pre-treatment 0.35 mg/kg i.p.; flurothyl 100 μl/min
Source text: Chamber was cleaned and the tissue paper was replaced before each new trial.

WT and Ube3a m-/p+ mice [7] = test: In vivo local field potential (LFP) recording in freely moving mice; parameters: species or system mouse; details: paxilline 0.35 mg/kg, 4 times with 1-hour interval
Method: […]. Eye cream was applied to a mouse to protect the eye from drying due to anaesthesia. 2% lidocaine was injected under the scalp and subsequently scalp was removed to expose the skull. […] Stereotrodes were made with platinum-iridium wire (90%:10%, A-M system) and unilaterally implanted into BIC. Stainless steel screw (AP: 2 mm, Lateral: 2 mm) was used as a reference electrode. Iodopavidone was applied for disinfection around the surgical area after dental cement mounting. Mice were maintained on a heating pad at 37° C. until waking from the anaesthesia before putting back to home cages. LFP recordings were performed on the mice 5 days after surgery. LFP recordings were conducted in a copper-Faraday chamber. For evoked LFP, auditory stimulus (˜125 dB, 500 Hz) was provided by a speaker (EKX, Electro-Voice) driven by a customized program in Matlab. LFP was recorded with sampling rate at 500 Hz and filtered with 0.5 Hz high-pass and 100 Hz low-pass by EEG/EMG recording system (Pinnacle). […] Video was recorded simultaneously for further analysis. After all recordings, mice were sacrificed, and their brains were isolated and fixed using 4% PFA in PBS and the implanted electrode locations were confirmed by either bright field imaging or DAPI staining and subsequent fluorescence imaging.

[8] = system: hippocampal neurons of WT and Ube3a m-/p+ mice; test: Whole cell patch clamp recordings in acute mouse hippocampal slices; assay type: cell-based; details: paxilline, postnatal day 28
Method: as §1
For fAHP analysis in all recordings, automatic detection and calculation was conducted by customized matlab scripts adapted from published algorithm (Bean, Nat Rev Neurosci 8, 451-465 (2007); Platkiewicz and Brette, PLoS Comput Biol 6, e1000850 (2010); Yu et al., J Neurosci 28, 7260-7272 (2008)). […] The fAHP amplitude of each neuron was calculated by averaging the fAHP of the first spike in all current injection steps. […]

In the case of `CCCNc1nc(NCCC)nc(N(C)OC)n1` [GAL-021, 2-N-methoxy-2-N-methyl-4-N,6-N-dipropyl-1,3,5-triazine-2,4,6-triamine], the “tolerated i.v. infusion dosage” value (healthy human volunteers) is listed as 0.1 to 0.96 mg/kg/h, the “changes in neuronal excitability, fAHP, and network hyperactivity and synchronization in human cortical organoids from UBE3A knockout stem cells” value [1] is listed as “normalized” and the “fAHP amplitude in KO hINs” value ([2]; GAL-021 50 μM or 100 μM, KO neurons) is listed as “lowered”. The “fAHP amplitude (and AP firing frequencies) in WT hINs” value ([2]; GAL-021 50 μM or 100 μM, WT neurons) was “did not change; also recorded: did not affect”, the “spike frequency and fAHP in KO neurons compared with WT hINs” value ([2]; GAL-021 100 μM) was “Restoration” and the “fAHP amplitude in KO hINs” value ([2]; GAL-021 200 μM, KO neurons) was “not significantly different from that of 100 μM”. The “fAHP amplitude in KO hINs” value ([2]; GAL-021 200 μM, KO neurons, listed as GAL021) was “normalized fAHP”, the “fAHP amplitude in WT hINs” value ([2]; GAL-021 200 μM, WT neurons) was “lowered” and the “fAHP amplitude in WT hINs” value ([2]; GAL-021 200 μM, WT neurons, listed as GAL021) was “decreased fAHP”. For the same molecule, the “differences in fAHP amplitude and AP firing frequency between KO and WT neurons” value ([2]; GAL-021 50 or 100 μM) was “normalized” and the “intrinsic excitability associated with augmented fAHP in UBE3A-deficient human neurons” value ([2]; GAL-021 application (50, 100, 200 μM tested)) was “returns to normal”.
In the case of `CC(C)C[C@@H](C=O)NC(=O)[C@H](CC(C)C)NC(=O)[C@H](CC(C)C)NC(=O)OCc1ccccc1` [MG312] (Cbz-Leu-Leu-Leu-aldehyde), the “decrease in the BK protein level caused by UBE3A coexpression” value [3] was “abolished”.
For `CC(C)(O)[C@H]1O[C@H]2CC[C@@]3(C)[C@@](O)(CC[C@H]4Cc5c([nH]c6ccccc56)[C@@]43C)C2=CC1=O` [Paxilline, (2R,4bS,6aS,12bS,12cR,14aS)-4b-hydroxy-2-(1-hydroxy-1-methylethyl)-12b,12c-dimethyl-5,6,6a,7,12,12b,12c,13,14,14a-decahydro-2H-chromeno[5′,6′:6,7]indeno[1,2-b]indol-3(4bH)-one], the “frequencies and amplitudes of calcium transients in the organoids” value [4] was “decreased both the frequencies and the amplitudes”, the “higher levels of network synchronization in KO and AS iPSC-derived organoids” value [4] was “abolished” and the “seizure susceptibility in KO mice” value (WT and Ube3a m-/p+ mice [5]; paxilline high dose 3 mg/kg, KO mice) was “responded positively”. The “seizure susceptibility in WT mice” value (WT and Ube3a m-/p+ mice [5]; paxilline high dose 3 mg/kg, WT mice) was “increased seizure susceptibility”, the “seizure grade of Ube3a m-/p+ mice versus WT mice” value (WT and Ube3a m-/p+ mice [5]; paxilline pre-treatment 0.35 mg/kg i.p., picrotoxin 3 mg/kg i.p.) was “normalize” and the “reduction in the latency to myoclonic seizure in Ube3a m-/p+ mice” value (WT and Ube3a m-/p+ mice [6]) was “normalized”. For the same molecule, the “seizures caused by paxilline” value (WT and KO mice; 10 mg/kg paxilline, WT and KO mice) was “caused seizures”, the “tremor in WT mice” value (WT and KO mice; paxilline 3 mg/kg compared to 0.35 mg/kg, WT mice) was “induced tremor” and the “tremor in KO mice” value (WT and KO mice; paxilline 3 mg/kg, KO mice) was “not evident”. For the same molecule, the “enhancement in the delta band (1-4 Hz) of LFP in Ube3a m-/p+ mice” value (WT and Ube3a m-/p+ mice [7]) was “normalized”, the “augmented neuronal excitability and fAHP changes in neurons of KO organoids” value ([1]; paxilline 10 μM, KO organoids) was “normalized” and the “spontaneous burst firing in neurons of UBE3A KO organoids” value ([1]; paxilline 10 μM, perforated patch recordings, KO organoids) was “completely converted spontaneous burst firing into single AP firing”. For the same molecule, the “changes in neuronal excitability, fAHP, and network hyperactivity and synchronization in human cortical organoids from UBE3A knockout stem cells” value [1] was “normalized”, the “changes in excitability and higher fAHP in neurons from Ube3a m-/p+ mice” value [8] was “normalized” and the “differences in fAHP amplitude and AP firing frequency between KO and WT neurons” value ([2]; 5 μM paxilline) was “normalized”. For the same molecule, the “excitability and fAHP in KO neurons” value ([2]; 5 μM paxilline, KO neurons) was “successfully restored excitability and fAHP to WT levels”, the “fAHP in WT neurons” value ([2]; 20 μM paxilline, WT neurons) was “significantly lowered fAHP” and the “fAHP in WT neurons” value ([2]; paxilline 5 μM, WT neurons) was “did not significantly reduce the fAHP”.
In the case of picrotoxin, the “seizure grade based on Racine's scale” value (WT and Ube3a m-/p+ mice [5]; picrotoxin 3 mg/kg i.p., Ube3a m-/p+ mice) was 5 grade and the “seizure grade based on Racine's scale” value (WT and Ube3a m-/p+ mice [5]; picrotoxin 3 mg/kg i.p., WT mice) was 1-2 grade.
